{
  "source": "patent US20190136321A1",
  "about": "“USE OF TRANSLATIONAL PROFILING TO IDENTIFY TARGET MOLECULES FOR THERAPEUTIC TREATMENT” (The Regents of The University of California, priority 2013, published 2019)",
  "key": {"[1]": {"test_system": "YB1, MTA1, vimentin, and CD44", "experiment": "Western blot and qPCR of mTOR-sensitive invasion genes in PC3 cells", "assay_type": "cell-based, human", "conditions": "starting at 6 hr of treatment", "description": "RNA was isolated using the manufacturer's protocol for RNA extraction with TRIzol Reagent (Invitrogen) using the Pure Link RNA mini kit (Invitrogen). RNA was DNase-treated with Pure Link Dnase (Invitrogen). DNase-treated RNA was transcribed to cDNA with SuperScript III First-Strand Synthesis System for RT-PCR (Invitrogen), and 1 μl of cDNA was used to run a SYBR green detection qPCR assay (SYBR Green Supermix and MyiQ2, Biorad). Primers were used at 200 nM."}, "LNCaP and A498 cells": {"test_system": "LNCaP and A498 cells", "experiment": "Apoptosis analysis (Annexin V/PI)", "assay_type": "cell-based, human", "conditions": "200 nM, 48 hours", "from_the_text": "Appropriately treated LNCaP and A498 cells were labeled with Annexin V-FITC (BD Biosciences) and propidium iodide (Sigma) following the manufacturer's instructions. PI/Annexin data was acquired using a BD FACS Caliber (BD Biosciences) and analyzed with FlowJo (v.9.1)."}, "Pten^L/L mice": {"test_system": "Pten^L/L mice", "experiment": "Pharmacological treatment of Pten^L/L mice (preclinical trial, prostate cancer)", "assay_type": "in vivo, mouse", "protocol": "Pten^loxp/loxp and Pb-cre mice where obtained from Jackson Laboratories and Mouse Models of Human Cancers Consortium (MMHCC), respectively, and maintained in the C57BL/6 background. Mice were maintained under specific pathogen-free conditions, and experiments were performed in compliance with institutional guidelines as approved by the Institutional Animal Care and Use Committee of UCSF.\nWeight measurements were taken every 3 days to monitor for toxicity. For the 28-day study, mice were imaged via […] at day 0 and day 28 in a 14-T GE MR scanner (GE Healthcare).\nWhole mouse prostates were removed from wild-type and Pten^L/L mice, microdissected, and frozen in liquid nitrogen. Frozen tissues were subsequently manually disassociated using a biopulverizer (Biospec) and additionally processed for protein and mRNA analysis as described above.\nProstates and lymph nodes were dissected from mice within 2 hr of the indicated treatment and fixed in 10% formalin overnight at 4° C. Tissues were subsequently dehydrated in ethanol (Sigma) at room temperature, mounted into paraffin blocks, and sectioned at […] Specimens were de-paraffinized and rehydrated using CitriSolv (Fisher) followed by serial ethanol washes. […] Sections were washed in distilled water followed by TBS washes. The sections were then incubated in 5% goat serum, 1% BSA in TBS for 1 hr at room temperature. Various primary antibodies were used, including those specific for keratin 5 (Covance), cytokeratin 8 (Abcam and Covance), YB1 (Abcam), vimentin (Abcam), MTA1 (Cell signaling), CD44 (BD Pharmingen), and the androgen receptor (Epitomics), which were diluted 1:50-1:500 in blocking solution and incubated on sections overnight at 4° C. Specimens were then washed in TBS and incubated with the appropriate Alexa 488 and 594 labeled secondary (Invitrogen) at 1:500 for 2 hr at room temperature, with the exception of YB1 which was incubated with biotinylated anti-rabbit secondary (Vector) followed by incubation with Alexa 594 labeled Streptavidin (Invitrogen). A final set of washes in TBS was completed at room temperature followed by mounting with DAPI Hardset Mounting Medium (Vector Lab). A Zeiss Spinning Disc confocal (Zeiss, CSU-X1) was used to image the sections at 40×-100×. Individual prostate cells were quantified for mean fluorescence intensity (m.f.i.) using the Axiovision (Zeiss, Release 4.8) densitometric tool.\nMouse lymph nodes were processed as described above and stained for CK8 and androgen receptor. Lymph nodes were imaged using a Zeiss AX10 microscope. Metastases were identified and areas were measured using the Axiovision (Zeiss, Release 4.8) measurement tool.\nImmunohistochemistry was performed as described above (see “Immunofluorescence”) with the exception that immediately after antigen […] and TBS washes, specimens were incubated in 3% hydrogen peroxide in TBS followed by TBS washes. The following primary antibodies were used: phospho-AKT^S473 (Cell Signaling), phospho-rpS6^S240/244 (Cell Signaling), phospho-4EBP1^T37/46 (Cell Signaling), phospho-histone H3 (Upstate), and cleaved caspase (Cell Signaling). This was followed by TBS washes and incubation with the appropriate biotinylated secondary antibody (Vector Lab) for 30 min at room temperature. An ABC-HRP Kit (Vector Lab) was used to amplify the signal, followed by a brief incubation in hydrogen peroxide. The protein of interest was detected using DAB (Sigma). Specimens were counterstained with haematoxylin (Thermo Scientific), dehydrated with Citrisolv (Fisher), and mounted with Cytoseal XYL (Vector Lab).\nParaffin-embedded prostate specimens were deparaffinized and rehydrated as described above (see “Immunofluorescence”), stained with haematoxylin (Thermo Scientific), and washed with water. This was followed by a brief incubation in differentiation RTU (VWR) and two washes with water followed by two 70% ethanol washes. […]"}, "PC3 cells": {"test_system": "PC3 cells", "experiment": "Matrigel invasion assay", "assay_type": "cell-based, human", "conditions": "6-hr pre-treatment followed by 6 hr of cell invasion", "from_the_text": "BioCoat Matrigel Invasion Chambers (modified Boyden Chamber Assay; BD Biosciences) were used according to the manufacturer's instructions."}, "[2]": {"conditions": "Pten^L/L mice, ATP site inhibitor of mTOR 1 mg/kg daily, RAD001 10 mg/kg daily"}},
  "data": [
    {"smiles": "CC(C)n1nc(-c2ccc3oc(N)nc3c2)c2c(N)ncnc21", "note": "[ATP site inhibitor of mTOR]", "values": [
      {"measurement": "expression of YB1, MTA1, vimentin, and CD44 at the protein but not transcript level", "setting": "[1]", "result": "selective decrease"},
      {"measurement": "programmed cell death in multiple cancer cell lines", "setting": "LNCaP and A498 cells", "result": "induced"},
      {"measurement": "prostate cancer volume", "setting": "Pten^L/L mice; Pten^L/L mice, 1 mg/kg daily, 28-day treatment, MRI", "result": "marked reduction"},
      {"measurement": "decrease in prostatic intraepithelial neoplasia (PIN) lesions", "setting": "Pten^L/L mice; Pten^L/L mice, 1 mg/kg daily, 28 days", "result": 50, "unit": "%"},
      {"measurement": "4EBP1 and p70S6K1/2 phosphorylation", "setting": "Pten^L/L mice; Pten^L/L mice, 28 days, ATP site inhibitor of mTOR 1 mg/kg daily, RAD001 10 mg/kg daily", "result": "completely restored to wild-type levels"},
      {"measurement": "progression of invasive prostate cancer locally in the prostate gland", "setting": "Pten^L/L mice; Pten^L/L mice, 60 days of treatment", "result": "completely blocked"},
      {"measurement": "total number and size of distant metastases", "setting": "Pten^L/L mice; Pten^L/L mice, draining lymph nodes, 60 days of treatment", "result": "profoundly inhibited"},
      {"measurement": "apoptosis (cleaved caspase 3)", "setting": "Pten^L/L mice; [2]", "result": "tenfold increase"},
      {"measurement": "proliferation (phospho-histone H3)", "setting": "Pten^L/L mice; [2]", "result": "decreased"},
      {"measurement": "expression of YB1, vimentin, CD44, and MTA1 at the protein, but not transcript, level", "setting": "Pten^L/L mice; specific epithelial cell types within pre-invasive PIN lesions in Pten^L/L mice", "result": "marked decrease"},
      {"measurement": "invasive potential of PC3 prostate cancer cells", "setting": "PC3 cells", "result": "decreased"}
    ]}
  ]
}
